The record followed here is patent publication US12208079B2, “Enantiomers of A2-73, analogues, and sigma agonist activity” (Anavex Life Sciences Corp., priority 2015, dated 2025).

For experiment [1], the target named is σ1 (h) (Homo sapiens, UniProt Q99720). Nature of the experiment: σ1 (h) receptor binding assay, [3H](+)pentazocine. Particulars: hydrochloride; for % of Control Specific Binding, 1st / % of Control Specific Binding, 2nd / % of Control Specific Binding, Mean: 1.0E−06 M; for % of Control Specific Binding, 1st: 1st individual value; for % of Control Specific Binding, 2nd: 2nd individual value; for % Inhibition of Control Specific Binding: test concentration 1.0E−06 M. The text has this:
(§1) The specific ligand binding to the receptors is defined as the difference between the total binding and the nonspecific binding determined in the presence of an excess of unlabelled ligand.
(§2) The results are expressed as a percent of control specific binding and as a percent inhibition of control specific binding obtained in the presence of the test compounds. Individual and mean values are presented in the results section.
(§3) The IC50 values (concentration causing a half-maximal inhibition of control specific binding) and Hill coefficients (nH) were determined by non-linear regression analysis of the competition curves using Hill equation curve fitting. The inhibition constants (Ki) were calculated from the Cheng Prusoff equation (Ki=IC50/(1+(L/KD)), where L=concentration of radioligand in the assay, and KD=affinity of the radioligand for the receptor).

The target in experiment [2] is T1, σ2 (Rattus norvegicus, UniProt Q5U3Y7).
T1 sequence (Q5U3Y7 1-176): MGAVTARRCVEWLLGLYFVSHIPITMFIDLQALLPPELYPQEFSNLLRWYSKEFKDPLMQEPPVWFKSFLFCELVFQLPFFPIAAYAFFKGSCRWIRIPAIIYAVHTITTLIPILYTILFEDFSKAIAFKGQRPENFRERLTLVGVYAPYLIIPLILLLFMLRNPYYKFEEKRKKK
Briefly: σ2 receptor binding assay, [3H]DTG (+ 300 nM (+)pentazocine). Particulars: for % of Control Specific Binding, 1st / % of Control Specific Binding, 2nd / % of Control Specific Binding, Mean: 1.0E−06 M; for % of Control Specific Binding, 1st: 1st individual value; for % of Control Specific Binding, 2nd: 2nd individual value; for % Inhibition of Control Specific Binding: test concentration 1.0E−06 M.
Description: as §1, §2, §3

Experiment [3] has as its system muscarinic M1 receptors. Briefly: Isolated organ bioassay, test for agonist activity, field-stimulated rabbit vas deferens. Particulars: for Effect on twitch contraction amplitude (in words): untreated field-stimulated tissues. It is filed as biochemical. The procedure:
(§4) Prostatic segments of rabbit vas deferens were suspended in 20-ml organ baths containing an oxygenated (95% O2 and 5% CO2) and pre-warmed (30° C.) physiological salt solution of the following composition (in mM): NaCl 118.0, KCl 4.7, MgSO4 0.6, CaCl2) 2.5, KH2PO4 1.2, NaHCO325 and glucose 11.0 (pH 7.4).
(§5) Yohimbine (1 μM) and naloxone (1 μM) were also present throughout the experiments to block the α2-adrenergic and opioid receptors, respectively.
(§6) The tissues were connected to force transducers for isometric tension recordings. They were stretched to a resting tension of 1 g then allowed to equilibrate for 60 min during which time they were washed repeatedly and the tension readjusted. Thereafter, they were stimulated electrically with square wave pulses (submaximal intensity, 1 msec duration, 0.1 Hz) delivered by a constant current stimulator.
The tissues were exposed to a submaximal concentration of the reference agonist McN-A-343 (1 μM) to verify responsiveness and to obtain a control response. Following washings and recovery of the initial twitch contractions, the tissues were exposed to the test compounds or the same agonist which were left in contact with the tissues until a stable response was obtained or for a maximum of 15 min.
(§7) The parameter measured was the maximum change in the amplitude of the electrically-evoked contractions induced by the compounds.
(§8) The results are expressed as a percent of the control response to McN-A-343 (mean values).

The subject of experiment [4] is muscarinic M1 receptors. Nature of the experiment: Isolated organ bioassay, test for antagonist activity, field-stimulated rabbit vas deferens. It is filed as biochemical. Particulars: for Response to McN-A-343 (1.0E−06M) in the presence of the compound, percent of the control response: mean, n=2; for Behaviour at the M1 receptors (conclusion): rabbit vas deferens. How it is done: as §4, §5, §6
The tissues were exposed to a submaximal concentration of the reference agonist McN-A-343 (1 μM) to obtain a control response.
If it occurred, a recovery of the twitch contraction amplitude by the test compounds indicated an antagonist activity at the M1 receptors.
as §7, §8

Experiment [5] in a line: Treatment of Alzheimer's patients (Examples 1 and 5). It is filed as in vivo. The procedure:
A person diagnosed with early stage Alzheimer's dementia is treated with 10 mg of ⊖Anevex2-73 substantially free of Anavex2-73 ? , once per week for three years.
A patient is diagnosed with AD and treated with 10 mg of ⊖Anevex2-73 substantially free of Anavex2-73 ? daily for 3 yrs.

Experiment [6] can be described thus: Neuroprotection against oxidative (anoxic) stress, balloon ascent (Example 2). In kind it is in vivo. Particulars: 10 mgs oral daily for 5 days before ascent to 6,000 meters without oxygen assist. The text has this:
A person balloonist, anticipating anoxic stress, is orally administered 10 mgs of oral ⊖Anevex2-73 substantially free of Anavex2-73 ? daily for 5 days preceding a balloon ascent.

The conditions of experiment [7]: in vivo, po.
Experiment [8] in a line: Neuroprotection in stroke patient (Example 4). In kind it is in vivo. Particulars: person, ischemic event of middle cerebral artery, 1 mg i.v. The procedure:
A person enters the emergency room and is diagnosed with an ischemic event involving the middle cerebral artery, with symptomatology onset being less than 1 hr. Immediately, the patient is administered an i.v. supplemented with 1 mg of ⊖Anevex2-73 substantially free of Anavex2-73 ? while blood supply to the restricted area is restored.

σ1 (h), sequence (Q99720 whole entry): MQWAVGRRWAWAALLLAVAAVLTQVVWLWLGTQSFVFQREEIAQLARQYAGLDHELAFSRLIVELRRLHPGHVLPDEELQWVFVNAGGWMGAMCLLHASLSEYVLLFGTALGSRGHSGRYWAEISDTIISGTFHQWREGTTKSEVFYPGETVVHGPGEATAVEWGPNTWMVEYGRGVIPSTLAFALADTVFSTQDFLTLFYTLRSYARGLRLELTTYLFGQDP

Turning to `CN(C)CC1COC(c2ccccc2)(c2ccccc2)C1.Cl` (single isomer, unassigned; (+)) [(+) A1-41, tetrahydro-N,N-dimethyl-5,5-diphenyl-3-furanmethanamine hydrochloride], the “% of Control Specific Binding, 1st” value in experiment [1] was found to be 35.0%; in experiment [2] (hydrochloride), 60.0%. Also, the “% of Control Specific Binding, 2nd” value in experiment [1] was 32.9%; in experiment [2] (hydrochloride), 56.8%. Also, the “% of Control Specific Binding, Mean” value amounted to 34.0% in experiment [1] and 58.4% in experiment [2] (hydrochloride). Further, the “% Inhibition of Control Specific Binding” value in experiment [1] came out at 66%; in experiment [2] (listed as (+) A1-14, hydrochloride), 42%. For the same compound, the “Response to the compound (decrease in twitch contraction amplitude), percent of the control response to McN-A-343” value is recorded as −31% in experiment [3] (compound 1.0E−05M, mean, n=2, listed as (+) AE 14, hydrochloride) and −16% in experiment [3] (compound 1.0E−06M, mean, n=2, listed as (+) AE 14, hydrochloride). Moreover, the “Effect on twitch contraction amplitude (in words)” value (shortened to “Effect”) in experiment [3] was “did not decrease the twitch contraction amplitude but caused a slight to moderate increase”. In addition, the “Response to McN-A-343 (1.0E−06M) in the presence of the compound, percent of the control response” value in experiment [4] (compound 1.0E−05M, listed as (+) AE 14, hydrochloride) turned out to be 1%; in experiment [4] (compound 1.0E−06M, listed as (+) AE 14, hydrochloride), 13%. Further, in experiment [4], the “Behaviour at the M1 receptors (conclusion)” value (from here on “Behaviour at the M1 receptors”) is “behave as antagonists at the M1 receptors”.
Regarding `CN(C)CC1CCOC1(c1ccccc1)c1ccccc1.Cl` (single isomer, unassigned; (+)) [(+) A2-73, tetrahydro-N,N-dimethyl-2,2-diphenyl-3-furanmethanamine hydrochloride], in experiment [1], the “% of Control Specific Binding, 1st” value is 81.5%; the “% of Control Specific Binding, 2nd” value came out at 81.1%; the “% of Control Specific Binding, Mean” value was 81.3%; the “% Inhibition of Control Specific Binding” value came to 19%. Also, in experiment [2] (hydrochloride), the “% of Control Specific Binding, 1st” value was 88.9%; the “% of Control Specific Binding, 2nd” value is 83.2%; the “% of Control Specific Binding, Mean” value was determined as 86.1%; the “% Inhibition of Control Specific Binding” value is recorded as 14%.
Take `CN(C)CC1COC(c2ccccc2)(c2ccccc2)C1.Cl` (single isomer, unassigned; (-)) [(−) A1-41, tetrahydro-N,N-dimethyl-5,5-diphenyl-3-furanmethanamine hydrochloride]: the “% of Control Specific Binding, 1st” value in experiment [1] worked out at 35.7%; in experiment [2] (hydrochloride), 41.0%. The “% of Control Specific Binding, 2nd” value in experiment [1] amounted to 33.3%; in experiment [2] (hydrochloride), 40.3%. Besides, the “% of Control Specific Binding, Mean” value in experiment [1] was determined as 34.5%; in experiment [2] (hydrochloride), 40.7%. Further, the “% Inhibition of Control Specific Binding” value is given as 65% in experiment [1] and 59% in experiment [2] (listed as (−) A1-14, hydrochloride). The “Response to the compound (decrease in twitch contraction amplitude), percent of the control response to McN-A-343” value in experiment [3] (compound 1.0E−05M, mean, n=2, listed as (−) AE 14, hydrochloride) was −8%; in experiment [3] (compound 1.0E−06M, mean, n=2, listed as (−) AE 14, hydrochloride), −5%. Besides, the “Effect” value in experiment [3] was “did not decrease the twitch contraction amplitude but caused a slight to moderate increase”. In addition, the “Response to McN-A-343 (1.0E−06M) in the presence of the compound, percent of the control response” value in experiment [4] (compound 1.0E−05M, listed as (−) AE 14, hydrochloride) was found to be 9%; in experiment [4] (compound 1.0E−06M, listed as (−) AE 14, hydrochloride), 20%. In addition, in experiment [4], the “Behaviour at the M1 receptors” value is on record as “behave as antagonists at the M1 receptors”.
For the compound `CN(C)CC1CCOC1(c1ccccc1)c1ccccc1.Cl` (single isomer, unassigned; (-)) [(−) A2-73, tetrahydro-N,N-dimethyl-2,2-diphenyl-3-furanmethanamine hydrochloride], in experiment [1], the “% of Control Specific Binding, 1st” value was 50.7%; the “% of Control Specific Binding, 2nd” value was 50.0%; the “% of Control Specific Binding, Mean” value came to 50.4%; the “% Inhibition of Control Specific Binding” value stood at 50%. Besides, in experiment [2] (hydrochloride), the “% of Control Specific Binding, 1st” value was determined as 126.1%; the “% of Control Specific Binding, 2nd” value was determined as 100.6%; the “% of Control Specific Binding, Mean” value worked out at 113.4%; the “% Inhibition of Control Specific Binding” value is reported as −13%. In addition, the “Response to the compound (decrease in twitch contraction amplitude), percent of the control response to McN-A-343” value in experiment [3] (compound 1.0E−05M, mean, n=2) is reported as −20%. In addition, the “Response to the compound (decrease in twitch contraction amplitude), percent of the control response to McN-A-343” value in experiment [3] (compound 5.0E−05M, mean, n=2) is on record as −33%. Also, the “Effect” value in experiment [3] is “did not decrease the twitch contraction amplitude but caused a slight to moderate increase”. In addition, the “Response to McN-A-343 (1.0E−06M) in the presence of the compound, percent of the control response” value in experiment [4] (compound 1.0E−05M) is on record as 16%. In addition, in experiment [4] (compound 5.0E-05M), the “Response to McN-A-343 (1.0E−06M) in the presence of the compound, percent of the control response” value is recorded as −1%. Besides, the “Behaviour at the M1 receptors” value in experiment [4] is on record as “behave as antagonists at the M1 receptors”. For the same compound, the Cognitive score entry in experiment [5] (person with AD, 10 mg daily for 3 yrs) was “stabilizes and then increases slowly and regularly”. Besides, the “Brain content in amyloid peptide oligomers on autopsy” value in experiment [5] (person, 10 mg once per week for three years) is reported as “very low content in amyloid peptide oligomers”. The “Mental function tested quarterly” value in experiment [5] (person, early stage Alzheimer's dementia, 10 mg once per week for three years) is “does not decrease over the period”. In addition, in experiment [6], the Anoxic damage entry was “suffers no anoxic damage”. For the same compound, the “Damage after neurotoxin exposure” value in experiment [7] is listed as “suffers no damage”. In experiment [8], the “CT/MRI imaging of the affected region” value is given as “no signs of lesioning in the affected region”; the “Daily testing of cognitive and motor systems” value is on record as “no deficits in physical or mental capacities”.
`C[N+](C)(C)CC#CCOC(=O)Nc1cccc(Cl)c1.[Cl-]` [McN-A-343, reference compound]: in experiment [3] (+ pirenzepine (1.0E−07M), mean, n=2), the “Response to the compound + pirenzepine, percent of the control response to McN-A-343” value is on record as −5%. The “Response to the compound (decrease in twitch contraction amplitude), percent of the control response to McN-A-343” value was 99% in experiment [3] (compound 1.0E−06M, mean, n=2); 29% in experiment [3] (compound 1.0E−07M, mean, n=2); 67% in experiment [3] (compound 3.0E−07M, mean, n=2). Moreover, the “Effect” value in experiment [3] was “concentration-dependent decrease in the twitch contraction amplitude”.
